Consider twelve compounds from PMC3439832 (Journal of agricultural and food chemistry, 2011).

For data set [1], the system named is anti-p,p′-DDE antibody (mouse polyclonal antibody, sera). The data set can be described thus: indirect competitive ELISA. Particulars: for % cross-reactivity: (IC50 p,p′-DDE/IC50 chemicals) × 100. Format: binding. For orientation: An ELISA detects its analyte on a solid surface through an enzyme-linked reagent.
In the next data set the test system is human tissues. To be noted: in human tissues; cited from earlier work.
Setting [2] is: sera of mouse P3 at day 80, before the ELISA was optimized.

Molecules are shown by their SMILES. Values after ≈ are worked out from the molar mass of the structure shown. Values joined by “and” are separate entries in the source; they are usually repeats but may differ in a detail not shown here. Identical values can stand only once.

With `OC(c1ccc(Cl)cc1)c1ccc(Cl)cc1` [DCBH], the “% cross-reactivity” value in data set [1] (pooled mouse sera) stood at 9.25%. Also, the IC50 – broadly, the concentration that inhibits the measured activity by half – in data set [1] (pooled mouse sera, ic-ELISA) turned out to be 0.2433 µg/mL (≈ 0.961 µM).
Consider `OCC(c1ccc(Cl)cc1)c1ccc(Cl)cc1` [DDOH, 2,2′-bis(4-chlorophenyl)ethanol], for which, in data set [1] (pooled mouse sera), the “% cross-reactivity” value is listed as 2.87%. Further, the IC50 in data set [1] (pooled mouse sera, ic-ELISA) is 0.785 µg/mL (≈ 2.94 µM).
`OC(c1ccc(Cl)cc1)(c1ccc(Cl)cc1)C(Cl)(Cl)Cl` [dicofol] returned an IC50 in data set [1] (pooled mouse sera, ic-ELISA) of more than 22.5 µg/mL.
For the compound `Clc1ccc(C(c2ccccc2Cl)C(Cl)Cl)cc1` (stereo not shown) [o,p′-DDD], the “% cross-reactivity” value in data set [1] (pooled mouse sera) came out at 5.00%. In addition, the IC50 in data set [1] (pooled mouse sera, ic-ELISA) is 0.45 µg/mL (≈ 1.41 µM).
For `ClC(Cl)=C(c1ccc(Cl)cc1)c1ccccc1Cl` [o,p′-DDE] the same measures were 0.64% and 3.5 µg/mL (≈ 11 µM).
`Clc1ccc(C(c2ccccc2Cl)C(Cl)(Cl)Cl)cc1` (stereo not shown) [o,p′-DDT] showed a half-maximal inhibitory concentration (IC50) in data set [1] (pooled mouse sera, ic-ELISA) of more than 20 µg/mL.
For `O=C(c1ccc(Cl)cc1)c1ccc(Cl)cc1` [p,p′-DBP], the “% cross-reactivity” value in data set [1] (pooled mouse sera) is 0.27%. The compound further displayed a concentration for half-maximal inhibition (IC50) in data set [1] (pooled mouse sera, ic-ELISA) of 8.357 µg/mL (≈ 33.3 µM).
Consider `O=C(O)C(c1ccc(Cl)cc1)c1ccc(Cl)cc1` [p,p′-DDA], for which the “% cross-reactivity” value in data set [1] (pooled mouse sera) was 0.28%. Further, the IC50 in data set [1] (pooled mouse sera, ic-ELISA) is 8.025 µg/mL (≈ 28.5 µM).
For `Clc1ccc(C(c2ccc(Cl)cc2)C(Cl)Cl)cc1` [p,p′-DDD] the same measures were 112.5% and 0.02 µg/mL (≈ 0.0625 µM).
As to `ClC(Cl)=C(c1ccc(Cl)cc1)c1ccc(Cl)cc1` [p,p′-DDE, 1,1-Dichloro-2,2-bis(p-chlorophenyl) ethylene], the half-life with human tissues is recorded as 7–11 years. For the same compound, the IC15 in data set [1] (developed ic-ELISA system) is 0.0096 ± 0.0244 µg/mL and 0.0096 µg/mL. Moreover, the IC50 in data set [1] (g-DDOH-OVA as coating antigen) is 0.69 µg/mL (≈ 2.17 µM); in data set [1] (pooled mouse sera, ic-ELISA) it was 0.0225 µg/mL (≈ 0.0707 µM); in data set [1] (s-DCBH-OVA as coating antigen) it was 0.06 µg/mL (≈ 0.189 µM); in data set [1] (setting [2]), approximately 0.08 µg/mL (≈ 0.252 µM). The “% cross-reactivity” value in data set [1] (pooled mouse sera) is 100%.
In the case of `Clc1ccc(Cc2ccc(Cl)cc2)cc1` [p,p′-DDM], the “% cross-reactivity” value in data set [1] (pooled mouse sera) is 59.7%. Besides, the IC50 in data set [1] (pooled mouse sera, ic-ELISA) is 0.0377 µg/mL (≈ 0.159 µM).
With `Clc1ccc(C(c2ccc(Cl)cc2)C(Cl)(Cl)Cl)cc1` [p,p′-DDT, 2,2-bis(p-chlorophenyl)-1,1,1-trichloroethane], the “% cross-reactivity” value in data set [1] (pooled mouse sera) is 6.62%. Further, the IC50 in data set [1] (pooled mouse sera, ic-ELISA) is 0.34 µg/mL (≈ 0.959 µM); in data set [1] (setting [2]), “about 2.85 μg/mL”.
